Reference: PMC6272846, “Synthesis and p38 Inhibitory Activity of Some Novel Substituted N,N′-Diarylurea Derivatives” (Molecules, 2016)

Key:
[1] = target: p38α mitogen-activated protein kinase (Homo sapiens, UniProt Q16539); experiment: Surface plasmon resonance (Biacore) binding to p38α; details: SPR, 25 °C
Protocol: To assess the binding ability between the compounds and p38α protein, we used SPR for kinase inhibitor interaction studies.
The Biacore instrument uses a technique based on surface plasmon resonance to follow the real-time binding of compounds to immobilized proteins on a carboxymethyl dextran surface in a liquid milieu. Compounds were stored as 10 mM stock solutions in 100% dimethyl sulfoxide (DMSO). All light-sensitive compounds were handled under yellow protective light. […] ATP was dissolved directly in running buffer to make a 10 mM solution. The run was started with five start-up cycles in which running buffer was injected (instead of a sample) followed by sample injection cycles. Zero concentration samples were used as blanks. A typical analysis cycle consisted of a 60 s sample injection (30 μL/min), 120–200 s of buffer flow (dissociation phase), followed by a needle and tubing wash with 50% DMSO and buffer, and finally, a 30 s buffer injection to check for sample carry over. The flow cell temperature was 25 °C. Between sample series, a solvent correction cycle was run according to the instrument manual to adjust for referencing errors due to refractive index mismatches between running buffer and samples [35].

[2] = target: MAPK14/p38α (Homo sapiens, UniProt Q16539); experiment: p38α MAP kinase activity, phosphorylation of ATF-2 (TR-FRET); assay type: biochemical; details: enzyme, GFP-ATF2 substrate, 90 μM ATP
MAPK14/p38α, sequence (Q16539 whole entry): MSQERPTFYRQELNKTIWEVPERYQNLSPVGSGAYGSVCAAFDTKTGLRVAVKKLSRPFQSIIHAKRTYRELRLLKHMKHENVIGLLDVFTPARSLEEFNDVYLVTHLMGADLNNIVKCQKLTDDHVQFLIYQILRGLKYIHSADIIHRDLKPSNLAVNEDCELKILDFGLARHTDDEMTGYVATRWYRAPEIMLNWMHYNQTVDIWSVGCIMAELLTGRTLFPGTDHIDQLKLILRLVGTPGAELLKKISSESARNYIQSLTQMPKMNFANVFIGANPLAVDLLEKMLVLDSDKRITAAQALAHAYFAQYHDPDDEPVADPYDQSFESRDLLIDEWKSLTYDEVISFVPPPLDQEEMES
Protocol: Kinase reaction buffer was composed of 50 mM HEPES (pH 7.5), 0.01% BRIJ-35, 10 mM MgCl2 and 1 mM EGTA. Prepared MAPK14/p38α in 1× kinase buffer with concentration at 500 ng/mL. A 2-fold serial dilution was performed using 1× kinase buffer from 500 ng/mL using 16 dose points. […] The reaction was started by adding 5 μL of the GFP-ATF2(19–96) substrate and ATP solution into each well of the assay plate. The final starting concentration of MAPK14/p38α was 250ng/ml, and the final GFP-ATF2 and ATP concentrations were 0.4 μM and 90 μM, respectively. The assay plate was sealed and incubated for 1 hour at room temperature (RT). Antibody solution (1 mL) was prepared from 20 mM EDTA and 4 nM Tb-antipATF2 (pThr71) antibody in TR-FRET dilution buffer. Antibody solution (10 μL) was added into each well of the assay plate and mixed gently. The final EDTA concentration was 10 mM, and the final Tb-antipATF2 (pThr71) concentration was 2 nM. The assay plate was sealed and incubated for 30 minutes at RT.
Inhibitor in 0.5% DMSO (2 μL/well) at 5-fold the final assay concentration was added into a 384-well assay plate. […] MAPK14/p38α (4 μL/well) was added to each well of the 384-well assay plate and incubated for 15 min at RT. To start the reaction, substrate GFP-ATF2 (19–96) and ATP (4 μL/well) were added into kinase reaction buffer. […] The resulting TR-FRET emission ratio was plotted against the concentration of inhibitor, and the data fitted to a sigmoidal dose-response curve with a variable slope. The IC50 concentration was calculated from the curve.

[3] = test system: MAPKAPK2; experiment: Inhibition of MAPKAPK2 in GFP-MAPKAPk2_BHK cell model (nuclear translocation); assay type: cell-based; details: GFP-MAPKAPk2_BHK cells
Protocol: In order to study p38α inhibition in a cell system, we investigated the ability of all compounds to inhibit the phosphorylation of mitogen-activated protein-kinase-activated protein kinase 2 (MAPKAPK2). Each compound was prepared at […] concentrations (1, 3, 10 and 30 nM, 0.1 and 0.3 μM), and the percentages of inhibition were calculated from the numbers of cells after treatment with the different compounds.
GFP-MAPKAPk2_BHK cells were cultured in 96-well plates (2.0 × 10^4/100 μL/well) containing 10% heat-inactivated foetal bovine serum (FBS) and 1 mg/mL G418 at 37 °C in humidified air containing 5% CO2 for 18–24 h. The cells were washed with nutrient solution (100 μL/well) and changed to the compound liquid (100 μL/well). Experiments were set up with the control, and the compound was repeated at each concentration in three wells. The cells were cultured in 96-well plates at 37 °C in humidified air containing 5% CO2 for 90 min. The cells were washed with the dye solution (20 μL/well), and the dyed cells were held for 1 hour at room temperature in the dye liquid. Analysis of nuclear translocation and calculation of the ability of the compounds to inhibit nuclear translocation was performed using the IN Cell Analyzer 1000 Nuclear Trafficking Analysis Module System (GE, Madison, WI, USA). The cultured cells were treated with the obtained compounds in […] concentration grads (1, 3, 10 and 30 nM, 0.1 and 0.3 μM). The inhibitory percentage can be calculated using the amounts of cells after the disposition of the different compounds.

[4] = test system: TNF-α release from THP-1 cells; experiment: Inhibition of TNF-α release from THP-1 cells after LPS stimulation; assay type: cell-based; details: Homo sapiens; LPS-stimulated THP-1 cells
Protocol: LPS stock was prepared at 1 mg/mL by adding 1 mL sterile endotoxin-free water to 1 mg LPS powder. The LPS stock was aliquoted and stored at −20 °C. […] An amount of 100 K THP-1 cells were seeded into a 96-well cell culture plate in 100 μL of test medium. […] A total of 10 μL compound was added to the plate with cells, and the cells were incubated for 1 hour at 37 °C. An amount of 10 μL/well LPS was added to stimulate the cells. The final LPS concentration was 300 ng/mL, and the DMSO concentration was 0.3%. […]. The plate was incubated for 5 hours at 37 °C. […] Three replicates were used for each dose. At the 5th hour, the TNF-α in the supernatants and standard curve samples was determined using the HTRF kit. […] Amounts of 5 μL Anti-TNF-α-Cryptate (Invitrogen, Carlsbad, CA, USA) and 5 μL Anti-TNFα-XL665 (Invitrogen) were added, and the plate was incubated at RT for 15 h. The plate was read on an Envision instrument (PerkinElmer) and the IC50 was calculated.

[5] = test system: TNF-α production; design: method as in PMID 11896401; details: 30 mg/kg p.o.; cited from earlier work
[6] = test system: TNF-α production, human whole blood; design: method as in PMID 11896401; details: read-out: IC50, inhibition of LPS-induced TNF-α production; cited from earlier work

p38α mitogen-activated protein kinase, sequence (Q16539 whole entry): as above

| SMILES | Kd [1] [nM] | IC50 [2] [nM] | IC50 [3] [nM] | IC50 [4] [nM] | inhibition of LPS-induced TNF-α production in mice in vivo [5] [%] | IC50 [6] [nM] |
| --- | --- | --- | --- | --- | --- | --- |
| Cc1cccc(-n2nc(C(C)(C)C)cc2NC(=O)NCc2ccccc2Oc2ccc3[nH]ncc3c2)c1 [25c, 1-(2-((1H-Indazol-5-yl)oxy)benzyl)-3-(3-(tert-butyl)-1-(m-tolyl)-1H-pyrazol-5-yl)urea] | 421 | 0.77 ± 0.08 | 6.6 ± 0.66 | 1.06 ± 0.05 |  |  |
| COc1ccc(-n2nc(C(C)(C)C)cc2NC(=O)NCc2ccccc2Oc2ccc3[nH]ncc3c2)cc1 [25d, 1-(2-((1H-Indazol-5-yl)oxy)benzyl)-3-(3-(tert-butyl)-1-(4-methoxyphenyl)-1H-pyrazol-5-yl)urea] |  | 1.22 ± 0.32 | 5.45 ± 0.43 | 1.43 ± 0.07 |  |  |
| CC(C)(C)c1cc(NC(=O)NCc2cc(F)ccc2Oc2ccc3c(c2)CCCC3O)n(-c2ccc([N+](=O)[O-])cc2)n1 (stereo not drawn) [27d, 1-(3-(tert-Butyl)-1-(4-nitrophenyl)-1H-pyrazol-5-yl)-3-(5-fluoro-2-((5-hydroxy-5,6,7,8-tetrahydro-naphthalen-2-yl)oxy)benzyl)urea] |  | 5.76 ± 0.24 |  | 130 ± 3.33 |  |  |
| CC(C)(C)c1cc(NC(=O)NCc2ccccc2Oc2ccc3[nH]ncc3c2)n(-c2ccc(S(N)(=O)=O)cc2)n1 [25k, 4-(5-(3-(2-((1H-Indazol-5-yl)oxy)benzyl)ureido)-3-(tert-butyl)-1H-pyrazol-1-yl)benzenesulfonamide] |  |  | 39 ± 5.76 | 8.69 ± 0.01 |  |  |
| CC(C)(C)c1cc(NC(=O)NCc2ccccc2Oc2ccc3[nH]ncc3c2)n(-c2ccc(Cl)cc2)n1 [25e, 1-(2-((1H-Indazol-5-yl)oxy)benzyl)-3-(3-(tert-butyl)-1-(4-chlorophenyl)-1H-pyrazol-5-yl)urea] |  |  | 9.92 ± 0.65 | 3.48 ± 0.46 |  |  |
| CC(C)(C)c1cc(NC(=O)NCc2ccccc2Oc2ccc3[nH]ncc3c2)n(-c2ccc(F)cc2)n1 [25g, 1-(2-((1H-Indazol-5-yl)oxy)benzyl)-3-(3-(tert-butyl)-1-(4-fluorophenyl)-1H-pyrazol-5-yl)urea] |  | 0.66 ± 0.09 | 3.16 ± 1.31 | 2 ± 0.01 |  |  |
| CC(C)(C)c1cc(NC(=O)NCc2ccccc2Oc2ccc3c(c2)CCCC3O)n(-c2ccccc2)n1 (stereo not drawn) [27c, 1-(3-(tert-Butyl)-1-phenyl-1H-pyrazol-5-yl)-3-(2-((5-hydroxy-5,6,7,8-tetrahydronaphthalen-2-yl)oxy)-benzyl)urea] |  | 3.73 ± 0.32 | 124 ± 6.64 | 18.4 ± 4.35 |  |  |
| Cc1ccc(-n2nc(C(C)(C)C)cc2NC(=O)NCc2ccccc2Oc2ccc3[nH]ncc3c2)cc1 [25a, 1-(2-((1H-Indazol-5-yl)oxy)benzyl)-3-(3-(tert-butyl)-1-(p-tolyl)-1H-pyrazol-5-yl)urea] | 15.4 | 0.47 ± 0.02 | 1.36 ± 0.31 | 0.73 ± 0.13 |  |  |
| CC(C)(C)c1cc(NC(=O)NCc2ccccc2Oc2ccc3[nH]ncc3c2)n(-c2ccccc2)n1 [25b, 1-(2-((1H-Indazol-5-yl)oxy)benzyl)-3-(3-(tert-butyl)-1-phenyl-1H-pyrazol-5-yl)urea] | 382 | 0.8 ± 0.03 | 2.45 ± 0.59 | 1 ± 0.09 |  |  |
| CC(C)(C)c1cc(NC(=O)NCc2ccccc2Oc2ccc3[nH]ncc3c2)n(-c2ccc(Br)cc2)n1 [25f, 1-(2-((1H-Indazol-5-yl)oxy)benzyl)-3-(1-(4-bromophenyl)-3-(tert-butyl)-1H-pyrazol-5-yl)urea] |  | 0.73 ± 0.01 | 7.4 ± 0.87 | 1.82 ± 0.15 |  |  |
| CC(C)(C)c1cc(NC(=O)NCc2ccccc2Oc2ccc3c(c2)CCCC3O)n(-c2ccc([N+](=O)[O-])cc2)n1 (stereo not drawn) [27b, 1-(3-(tert-Butyl)-1-(4-nitrophenyl)-1H-pyrazol-5-yl)-3-(2-((5-hydroxy-5,6,7,8-tetrahydronaphthalen-2-yl)-oxy)benzyl)urea] |  | 3.87 ± 0.43 | 98.5 ± 5.89 | 27.5 ± 1.21 |  |  |
| CC(C)(C)c1cc(NC(=O)Nc2ccc(Oc3ccc4[nH]ncc4c3)c3c2OCC=C3)n(-c2ccccc2)n1 [26b, 1-(5-((1H-Indazol-5-yl)oxy)-2H-chromen-8-yl)-3-(3-(tert-butyl)-1-phenyl-1H-pyrazol-5-yl)urea] |  | 5.14 ± 0.33 | 22.3 ± 1.88 |  |  |  |
| CC(C)(C)c1cc(NC(=O)NCc2cc(F)ccc2Oc2ccc3[nH]ncc3c2)n(-c2ccc([N+](=O)[O-])cc2)n1 [25i, 1-(2-((1H-Indazol-5-yl)oxy)-5-fluorobenzyl)-3-(3-(tert-butyl)-1-(4-nitrophenyl)-1H-pyrazol-5-yl)urea] |  | 1.43 ± 0.08 | 3.83 ± 1.12 |  |  |  |
| Cc1ccc(-n2nc(C(C)(C)C)cc2NC(=O)Nc2ccc(OCCN3CCOCC3)c3ccccc23)cc1 [BIRB-796, 1-(5-tert-butyl-2-p-tolyl-2h-pyrazol-3-yl)-3-[4-(2-morpholin-4-yl-ethoxy)naph-thalen-1-yl]urea] |  |  |  |  | 84 | 780 |
| Cc1ccc(-n2nc(C(C)(C)C)cc2NC(=O)NCc2ccccc2Oc2ccc3c(c2)CCCC3O)cc1 (stereo not drawn) [27a, 1-(3-(tert-Butyl)-1-(p-tolyl)-1H-pyrazol-5-yl)-3-(2-((5-hydroxy-5,6,7,8-tetrahydronaphthalen-2-yl)oxy)-benzyl)urea] |  | 3.59 ± 0.21 | 133.41 ± 0.07 | 15.3 ± 2.56 |  |  |
| Cc1ccc(-n2nc(C(C)(C)C)cc2NC(=O)NCc2cc(F)ccc2Oc2ccc3c(c2)CCCC3O)cc1 (stereo not drawn) [27e, 1-(3-(tert-Butyl)-1-(p-tolyl)-1H-pyrazol-5-yl)-3-(5-fluoro-2-((5-hydroxy-5,6,7,8-tetrahydronaphthalen-2-yl)-oxy)benzyl)urea] |  | 5 ± 0.53 |  | 182 ± 4.35 |  |  |
| CC(C)(C)c1cc(NC(=O)NCc2ccccc2Oc2ccc3[nH]ncc3c2)n(-c2ccc([N+](=O)[O-])cc2)n1 [25h, 1-(2-((1H-Indazol-5-yl)oxy)benzyl)-3-(3-(tert-butyl)-1-(4-nitrophenyl)-1H-pyrazol-5-yl)urea] | 221 | 0.82 ± 0.01 | 2.64 ± 0.56 | 1.79 ± 0.48 |  |  |
